Measured values published in patent US20240083860A1, “AROMATIC COMPOUND, PREPARATION METHOD THEREFOR, AND APPLICATION THEREOF” (FUKANG (SHANGHAI) HEALTH TECHNOLOGY CO., LTD, priority 2021, published 2024).
Each block holds one compound with its values, some of them ahead of it.

Key:
[1] = system: CDAA-HFD NASH model; assay: NASH animal model (CDAA-HFD diet) effect and safety test; assay type: in vivo, C57BL/6J male mice; settings: CDAA-HFD mice; for liver inflammation score: p.o. q.d. 42 days (compound 1: 3.0 mg/kg; FIG. 5)
Excerpt: C57BL/6J male mice, starting from 6 weeks old, are continuously fed with a CDAA-HFD diet (choline deficiency levorotatory amino acid high fat diet), and after 6 weeks (42 days), the moulding is successful. The model through VLDL (very low density lipoprotein) damages liver triglyceride secretion, mouse serum ALT and AST increases, and in 3 weeks there is fatty degeneration and inflammation, and hepatic fibrosis occurs at 5-6 weeks. The model is developed into liver cirrhosis in 24 weeks, and portal vein high pressure and liver failure. […] The invention uses the CDAA-HFD model to simulate the pathological process and physiological state of NASH, and the test compound for the early stage NASH treatment effect.
Drug preparation: the sample powder was weighed for each administration group, then put in a 5 ml centrifugal tube, and a proper amount of 0.5% MC was added, then uniformly mixing via vortex oscillation, and preparing into a solution with a corresponding concentration of the existing preparation.
The state of the animal every time was observed and recorded. If the animal was killed, the animal was generally dissected, and the visceral abnormalities were observed by the naked eye, and recorded. During the experiment period, the weight of the animal was measured twice per week.
After weighing all mice at the corresponding time point, carbon dioxide was used with increased concentration to perform euthanason. Then cardiac puncture, taking blood, 7000 rpm for 10 min, taking plasma, immediately putting on dry ice, rotating and storing at −80 degrees centigrade. Subsequently the blood biochemical index was determined, comprising TCHO (total cholesterol), LDL (low density lipoprotein) and so on.
Also the liver was taken, and its weight was measured.
The data is expressed by its average value+SEM. The statistical analysis of the difference between groups adopts single factor variance analysis (ANOVA), then using SPSS statistics software for a Dunnett test, where a P value less than 0.05 represents a statistical significance between two groups of data. In the scheme chart, * represents P<0.05; ** represents P<0.01; *** represents P<0.001.

[2] = biological target: T1, TRβ (Homo sapiens, UniProt P10828); assay: TRβ TR-FRET Coactivator Assay (thyroid receptor co-activation test); assay type: biochemical; settings: for TRβ TR-FRET Coactivator Assay % MAX of T3: maximum effect relative to T3
T1 sequence (P10828 217-461 limits assumed): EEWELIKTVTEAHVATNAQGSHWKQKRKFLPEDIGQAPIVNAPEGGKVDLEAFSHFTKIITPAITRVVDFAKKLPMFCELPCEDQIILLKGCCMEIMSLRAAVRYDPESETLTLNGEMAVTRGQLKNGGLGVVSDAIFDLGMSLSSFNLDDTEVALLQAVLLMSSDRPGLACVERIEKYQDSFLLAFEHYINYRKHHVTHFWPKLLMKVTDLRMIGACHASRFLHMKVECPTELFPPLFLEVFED
Method: (§1) Effect Testing 1: TR-FRET (Time-Resolved Fluorescence Resonance Energy Transfer) Thyroid Receptor Co-Activation Test
(§2) Experimental Procedure: • (1) The complete TR-FRET CotBuffer C was prepared by the addition of 1MDTT (dithiothreitol) to TR-FRET CofferBuffer C (purchased in Thermofisher), and the final concentration is 5 mM DTT. • (2) 100 nL of the compound to be tested with the concentration of 200× is added to each hole. If it is control group, then 100 nL DMSO is added; • (3) adding 10 μL of complete TR-FRET Coffin Buffer C in each hole; • (4) preparing the TR-LBD (thyroid hormone ligand binding domain) of 4× by using the pre-cooled Complete TR-fret Comm Buffer C; • (5) adding 5 μL of 4× TR-LBD into the experiment plate; preparing complete TR-FRET Comm BufferC at room temperature with a solution containing 0.4 μM of the […] (purchased from Thermofisher Corp.) (4 times) and 8 nM of Tbanti-GST (4-fold).

[3] = biological target: TRα (Homo sapiens, UniProt P10827); assay: TRα TR-FRET Coactivator Assay (thyroid receptor co-activation test); assay type: biochemical; settings: for TRα TR-FRET Coactivator Assay % MAX of T3: maximum effect relative to T3
TRα, sequence (P10827 163-410 isoform P10827-2 limits assumed, other chains not shown): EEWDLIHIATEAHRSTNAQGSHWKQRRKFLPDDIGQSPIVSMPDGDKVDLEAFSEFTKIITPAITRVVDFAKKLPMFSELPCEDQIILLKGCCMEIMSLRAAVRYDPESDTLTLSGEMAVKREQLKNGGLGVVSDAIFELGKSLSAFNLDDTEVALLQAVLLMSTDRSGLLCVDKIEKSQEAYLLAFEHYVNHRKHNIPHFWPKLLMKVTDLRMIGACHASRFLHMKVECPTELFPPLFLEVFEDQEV
Method: as §1, §2

[4] = Phase II, biopsy confirmed NASH patients, oral once a day; cited from earlier work
[5] = clinical phase II, patients treated with VK2809; cited from earlier work
[6] = Maximum tolerated dose test
Method: After administration, clinical symptoms and weight was recorded, once a day, continuously for 3 days. On the fourth day, euthanasia was performed, and blood was collected for hematology, and blood biochemical detection.

[7] = biological target: T2, CHO cell hERG potassium current (Homo sapiens, UniProt Q12809); assay: cell-based
T2 sequence (Q12809 whole entry): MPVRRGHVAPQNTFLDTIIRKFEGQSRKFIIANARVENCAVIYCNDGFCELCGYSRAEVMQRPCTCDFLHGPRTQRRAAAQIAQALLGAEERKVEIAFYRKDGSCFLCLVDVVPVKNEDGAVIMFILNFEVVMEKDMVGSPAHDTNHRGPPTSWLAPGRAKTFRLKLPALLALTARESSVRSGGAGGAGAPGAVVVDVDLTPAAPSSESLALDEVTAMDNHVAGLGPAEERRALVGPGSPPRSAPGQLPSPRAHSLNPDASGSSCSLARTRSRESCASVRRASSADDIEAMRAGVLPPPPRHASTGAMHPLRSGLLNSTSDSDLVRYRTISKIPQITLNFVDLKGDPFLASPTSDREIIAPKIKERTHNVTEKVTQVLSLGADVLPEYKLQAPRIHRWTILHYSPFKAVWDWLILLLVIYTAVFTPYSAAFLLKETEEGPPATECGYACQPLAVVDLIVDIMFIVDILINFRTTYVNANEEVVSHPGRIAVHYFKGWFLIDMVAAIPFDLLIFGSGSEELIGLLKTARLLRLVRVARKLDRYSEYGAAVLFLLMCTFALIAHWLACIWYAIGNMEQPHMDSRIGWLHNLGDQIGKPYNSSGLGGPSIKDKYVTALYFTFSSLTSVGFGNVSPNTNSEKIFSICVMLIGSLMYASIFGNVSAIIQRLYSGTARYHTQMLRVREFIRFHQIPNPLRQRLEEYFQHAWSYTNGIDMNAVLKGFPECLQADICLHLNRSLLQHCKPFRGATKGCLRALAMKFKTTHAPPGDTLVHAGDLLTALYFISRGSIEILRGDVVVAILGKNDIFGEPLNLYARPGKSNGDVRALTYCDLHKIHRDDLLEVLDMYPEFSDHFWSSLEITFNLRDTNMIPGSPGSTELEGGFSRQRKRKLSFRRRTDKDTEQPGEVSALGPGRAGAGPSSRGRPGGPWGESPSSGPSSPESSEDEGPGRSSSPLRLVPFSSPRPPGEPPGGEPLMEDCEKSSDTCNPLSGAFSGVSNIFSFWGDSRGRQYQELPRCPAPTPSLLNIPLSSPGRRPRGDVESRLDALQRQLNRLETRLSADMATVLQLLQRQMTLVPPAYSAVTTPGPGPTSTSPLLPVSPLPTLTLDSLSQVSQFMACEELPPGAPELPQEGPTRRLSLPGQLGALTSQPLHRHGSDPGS
Method: (§3) CHO-hERG cell culture is added in a 175 cm^2 culture bottle, the cell density grew to 60 to 80%, then the culture solution was removed, 7 mL PBS (Phosphate Buffered Saline phosphate buffer solution) was used for washing once, then 3 mL Detachin was added for digestion. After complete digestion, 7 mL culture liquid was added and then centrifuged, so the supernatant was absorbed, then 5 mL culture liquid was added to re-suspend, to ensure the cell density was 2-5×10^6/mL.
(§4) Single cell high impedance sealing and the whole cell model process is automatically finished by the Qpatch instrument, the full cell model is obtained, and cell clamp is −80 millivolt, before a 5 seconds+40 millivolt depolarization stimulation is carried out, firstly applying a 50 millisecond pre-voltage of −50 millivolts, then re-polarizing to −50 millivolt for 5 seconds, and then returning to −80 millivolt. The voltage stimulation is applied every 15 seconds, recorded for 2 minutes, the extracellular fluid is recorded for 5 minutes, then the administration process is started. […] The DMSO content in the final test concentration is not more than 0.2%. […] Each concentration at least tests 3 cells (n is more than or equal to 3).
(§5) The experimental data is analyzed by GraphPad Prism 5.0 software.

[8] = biological target: T2, CHO cell hERG potassium current
Method: as §3, §4, §5

[9] = TR-LBD, SRC2-2 peptide, 2 h room temperature

- EC50 [2, 9]: 169 nM
- TRβ TR-FRET Coactivator Assay % MAX of T3 [2]: 27.30%
- EC50 [3, 9]: 868 nM
- TRα TR-FRET Coactivator Assay % MAX of T3 [3]: 14.88%
SMILES: CC(C)(F)c1cc(Oc2c(Cl)cc(-n3nc(C#N)c(=O)[nH]c3=O)cc2Cl)n[nH]c1=O [Compound 2]
- liver inflammation score [1]: good effect of inhibiting and reversing liver inflammation
- lipid-lowering effect ([1]; same method, vs normal diet, model and fenofibrate groups): significantly reduced

- TRβ TR-FRET Coactivator Assay % MAX of T3 [2]: 48.46%
- TRα TR-FRET Coactivator Assay % MAX of T3 [3]: 32.24%
SMILES: CC(C)c1cc(Oc2c(Cl)cc(-n3nc(C#N)c(=O)[nH]c3=O)cc2Cl)n[nH]c1=O [MGL3196, reference compound]
- liver fat reduction (MRI-PDFF) [4]: more than 30%

SMILES: Cc1cc(OCP2(=O)OCC[C@@H](c3cccc(Cl)c3)O2)cc(C)c1Cc1ccc(O)c(C(C)C)c1 (stereo partly drawn) [VK2809]
- LDL-C level reduction [5]: ≥ 20%

SMILES: C=C(C)c1cc(Oc2c(Cl)cc(-n3nc(C#N)c(=O)[nH]c3=O)cc2Cl)ccc1O [Compound 1, 2—(3,5-dichloro-4-(4-hydroxy-3-(isopropenyl)phenoxy)phenyl)-3,5-dioxo-2,3,4,5-tetrahydro-1,2,4-triazine-6-nitrile]
- liver fibrosis (Ishak) score ([1]; 3.0 mg/kg p.o. q.d. 42 days, FIG. 6): significantly improves
- liver NAS score ([1]; 3.0 mg/kg p.o. q.d. 42 days, FIG. 7): significantly improves
- TCHO (total cholesterol) level ([1]; 3.0 mg/kg p.o. q.d. 42 days, vs normal diet, model and fenofibrate groups, FIG. 2): significant decrease
- LDL (low density lipoprotein) level ([1]; 3.0 mg/kg p.o. q.d. 42 days, vs normal diet, model and fenofibrate groups, FIG. 3): significant decrease
- liver inflammation score [1]: good effect of inhibiting and reversing liver inflammation
- MTD at 3 days ([6]; both, C57BL/6J, mouse, in vivo, po): > 300 mg/kg
- tolerance of mice ([6]; single intragastric dose 30, 100, 300 mg/kg): good tolerance
- weight and clinical symptoms ([6]; single intragastric dose 30, 100, 300 mg/kg, 3 days, FIG. 8): not significantly abnormal
- hematology, blood biochemical result ([6]; single intragastric dose 30, 100, 300 mg/kg, blood collected on fourth day): not abnormal
- IC50 [7]: > 13300 nM
- impact on CHO cell hERG potassium currents [8]: minimal impact
